From patent US20220098203A1 (priority 2018, published 2022)
pIC50: −log10 of the molar value. Like-named read-outs stand apart in the source and are kept apart here.

Assays:
MAT2A homodimer = target: T1, MAT2A homodimer (Homo sapiens, UniProt P31153); experiment: MAT2A biochemical assay (liberated phosphate, PiColorLock Gold); settings: Table 5a; MAT2A biochemical assay; read-out: Enzyme Inhibition
T1 construct: inferred from the Ni sepharose purification and imidazole elution; made in house; host or cells: SF9 insect cells, recombinant baculovirus (Bac to Bac, pFASTBAC1)
T1 sequence (P31153 whole entry): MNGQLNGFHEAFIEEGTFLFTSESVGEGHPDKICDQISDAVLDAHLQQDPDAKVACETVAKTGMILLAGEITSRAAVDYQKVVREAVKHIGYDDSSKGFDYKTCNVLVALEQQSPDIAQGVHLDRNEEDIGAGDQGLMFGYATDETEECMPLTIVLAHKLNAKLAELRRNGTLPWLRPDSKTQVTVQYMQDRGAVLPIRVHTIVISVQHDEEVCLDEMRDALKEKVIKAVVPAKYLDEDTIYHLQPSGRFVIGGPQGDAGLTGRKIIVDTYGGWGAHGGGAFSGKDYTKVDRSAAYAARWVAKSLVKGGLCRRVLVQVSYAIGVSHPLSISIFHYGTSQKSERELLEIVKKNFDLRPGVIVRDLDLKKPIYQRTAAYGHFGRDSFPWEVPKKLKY
How it was run: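 Readout is liberated phosphate (PiColorLock Gold), stoichiometric with SAM production, quantified against a potassium phosphate standard curve. Enzyme: recombinant MAT2A homodimer from Sf9, equilibrated 60 min at 25 °C with compound before 60 min reaction with substrate mix containing 500 μM ATP and 400 μM L-methionine.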

[1] = tested on: SAM in HCT116 MTAP-deleted cells; experiment: Cellular assay of target engagement (SAM), LC-MS/MS; assay type: cell-based, human; settings: 72 h, read-out: Cell 72 h SAM Inhibition (MTAP −/−)
How it was run: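 Target engagement was read as intracellular SAM, measured by LC-MS/MS with d3-SAM as internal standard in methanol/acetic acid extracts. These came from MTAP-deleted HCT116 colon carcinoma cells exposed to inhibitor for 72 hrs.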

HCT116 MTAP+/+ = experiment: Inhibition of cellular proliferation (Cell Titer Glo), HCT116 MTAP+/+; assay type: cell-based; settings: Homo sapiens, HCT-116, 96 h, Table 5a, 4 days, read-out: 4 Day Relative Growth Inhibition (MTAP +/+)
How it was run: (§1)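 After 4 days of compound exposure at 37 °C, starting 24 h after plating, growth of the MTAP-wildtype and MTAP-deleted HCT116 pair was measured as ATP luminescence (CellTiter-Glo). The proliferation index was signal minus no-cell blank, divided by blank-corrected 0.2% DMSO control.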

HCT116 MTAP-/- = experiment: Inhibition of cellular proliferation (Cell Titer Glo), HCT116 MTAP-/-; assay type: cell-based, human; settings: 4 days, read-out: 4 Day Relative Growth Inhibition (MTAP −/−)
How it was run: as §1

[2] = Homo sapiens, HCT-116, Table 5a
[3] = Homo sapiens, HCT-116, 96 h, Table 5a
[4] = Table 6, select pairs of compounds

pIC50 (MAT2A homodimer)	pIC50 [1, 2]	pIC50 (HCT116 MTAP+/+)	pIC50 (HCT116 MTAP-/-; [3])	pIC50 [1, 4]	pIC50 (HCT116 MTAP-/-; [4])	SMILES
6.00 to 7.00	6.00 to 7.00	< 6.00	6.00 to 7.00			COc1ccc(N2Cc3cnc(NCC(F)(F)F)nc3N(c3ccc(CO)cc3)C2=O)cc1 [Example 202, 1-(4-(hydroxymethyl)phenyl)-3-(4-methoxyphenyl)-7-((2,2,2-trifluoroethyl)amino)-3,4-dihydropyrimido[4,5-d]pyrimidin-2(1H)-one]
> 7.00	6.00 to 7.00	< 6.00	6.00 to 7.00			COc1ccc(N2Cc3cnc(NCC(F)(F)F)nc3N(c3ccc(CCO)cc3)C2=O)cc1 [Example 206, 1-(4-(2-hydroxyethyl)phenyl)-3-(4-methoxyphenyl)-7-((2,2,2-trifluoroethyl)amino)-3,4-dihydropyrimido[4,5-d]pyrimidin-2(1H)-one]
> 7.00	> 7.00	< 6.00	6.00 to 7.00			O=C1N(c2ccc3c(c2)OCCO3)Cc2cnc(NCC(F)(F)F)nc2N1c1ccc(-c2nc[nH]n2)cc1 [Example 214, 1-(4-(1H-1,2,4-triazol-3-yl)phenyl)-3-(2,3-dihydrobenzo[b][1,4]dioxin-6-yl)-7-((2,2,2-trifluoroethyl)amino)-3,4-dihydropyrimido[4,5-d]pyrimidin-2(1H)-one]
> 7.00	> 7.00	< 6.00	6.00 to 7.00			[2H]C([2H])([2H])Oc1ccc(N2Cc3cnc(NCC(F)(F)F)nc3N(c3ccc(-c4nc[nH]n4)cc3)C2=O)cc1 [Example 215, 1-(4-(1H-1,2,4-triazol-3-yl)phenyl)-3-(4-(methoxy-d3)phenyl)-7-((2,2,2-trifluoroethyl)amino)-3,4-dihydropyrimido[4,5-d]pyrimidin-2(1H)-one]
> 7.00	> 7.00	< 6.00	> 7.00	> 7.00	> 7.00	Cn1cc2cc(N3Cc4cnc(NCC(F)(F)F)nc4N(c4ccc(OC(F)F)cc4)C3=O)ccc2n1 [Example 216, 1-(4-(difluoromethoxy)phenyl)-3-(2-methyl-2H-indazol-5-yl)-7-((2,2,2-trifluoroethyl)amino)-3,4-dihydropyrimido[4,5-d]pyrimidin-2(1H)-one]
> 7.00	> 7.00	< 6.00	> 7.00			Cc1nc2ccc(N3Cc4cnc(NCC(F)(F)F)nc4N(c4ccc(-c5nc[nH]n5)cc4)C3=O)cc2s1 [Example 217, 1-(4-(1H-1,2,4-triazol-3-yl)phenyl)-3-(2-methylbenzo[d]thiazol-6-yl)-7-((2,2,2-trifluoroethyl)amino)-3,4-dihydropyrimido[4,5-d]pyrimidin-2(1H)-one]
> 7.00	6.00 to 7.00	< 6.00	6.00 to 7.00			Cn1cnc2ccc(N3Cc4cnc(NCC(F)(F)F)nc4N(c4ccc(-c5nc[nH]n5)cc4)C3=O)cc21 [Example 218, 1-(4-(1H-1,2,4-triazol-3-yl)phenyl)-3-(1-methyl-1H-benzo[d]imidazol-6-yl)-7-((2,2,2-trifluoroethyl)amino)-3,4-dihydropyrimido[4,5-d]pyrimidin-2(1H)-one]
> 7.00	> 7.00	< 6.00	6.00 to 7.00			O=C1N(c2ccc3ncsc3c2)Cc2cnc(NCC(F)(F)F)nc2N1c1ccc(-c2nc[nH]n2)cc1 [Example 219, 1-(4-(1H-1,2,4-triazol-3-yl)phenyl)-3-(benzo[d]thiazol-6-yl)-7-((2,2,2-trifluoroethyl)amino)-3,4-dihydropyrimido[4,5-d]pyrimidin-2(1H)-one]
> 7.00	6.00 to 7.00	< 6.00	6.00 to 7.00			Cn1cc2cc(N3Cc4cnc(NCC(F)(F)F)nc4N(c4ccc(-c5nc[nH]n5)cc4)C3=O)ccc2n1 [Example 220, 1-(4-(1H-1,2,4-triazol-3-yl)phenyl)-3-(2-methyl-2H-indazol-5-yl)-7-((2,2,2-trifluoroethyl)amino)-3,4-dihydropyrimido[4,5-d]pyrimidin-2(1H)-one]
> 7.00	> 7.00	< 6.00	6.00 to 7.00			O=C1N(c2ccc3ncccc3c2)Cc2cnc(NCC(F)(F)F)nc2N1c1ccc(-c2nc[nH]n2)cc1 [Example 223, 1-(4-(1H-1,2,4-triazol-3-yl)phenyl)-3-(quinolin-6-yl)-7-((2,2,2-trifluoroethyl)amino)-3,4-dihydropyrimido[4,5-d]pyrimidin-2(1H)-one]
> 7.00	6.00 to 7.00	< 6.00	6.00 to 7.00			COc1ccc(N2C(=O)N(c3ccnc(OC)c3)Cc3cnc(NCC(F)(F)F)nc32)cc1 [Example 228, 1-(4-methoxyphenyl)-3-(2-methoxypyridin-4-yl)-7-((2,2,2-trifluoroethyl)amino)-3,4-dihydropyrimido[4,5-d]pyrimidin-2(1H)-one]
6.00 to 7.00	6.00 to 7.00	< 6.00	< 6.00			COc1ccc(N2C(=O)N(c3cn[nH]c3)Cc3cnc(NCC(F)(F)F)nc32)cc1 [Example 231, 1-(4-methoxyphenyl)-3-(1H-pyrazol-4-yl)-7-((2,2,2-trifluoroethyl)amino)-3,4-dihydropyrimido[4,5-d]pyrimidin-2(1H)-one]
6.00 to 7.00	< 6.00	< 6.00	< 6.00			COc1ccc(N2C(=O)N(c3ccc(=O)n(C)c3)Cc3cnc(NCC(F)(F)F)nc32)cc1 [Example 232, 1-(4-methoxyphenyl)-3-(1-methyl-6-oxo-1,6-dihydropyridin-3-yl)-7-((2,2,2-trifluoroethyl)amino)-3,4-dihydropyrimido[4,5-d]pyrimidin-2(1H)-one]
> 7.00	6.00 to 7.00	< 6.00	6.00 to 7.00			COc1ccc(N2C(=O)N(c3ccc4[nH]cnc4c3)Cc3cnc(NCC(F)(F)F)nc32)cc1 [Example 234, 3-(1H-benzo[d]imidazol-5-yl)-1-(4-methoxyphenyl)-7-((2,2,2-trifluoroethyl)amino)-3,4-dihydropyrimido[4,5-d]pyrimidin-2(1H)-one]
> 7.00	6.00 to 7.00	< 6.00	6.00 to 7.00			COc1ccc(N2Cc3cnc(NCC(F)(F)F)nc3N(c3ccc(OC(F)F)cc3)C2=O)cc1 [Example 235, 1-(4-(Difluoromethoxy)phenyl)-3-(4-methoxyphenyl)-7-(2,2,2-trifluoroethylamino)-3,4-dihydropyrimido[4,5-d]pyrimidin-2(1H)-one]
> 7.00	6.00 to 7.00	< 6.00	< 6.00			COc1ccc(N2Cc3cnc(NCC(F)(F)F)nc3N(c3ccc(Br)cc3)C2=O)cc1 [Example 236, 1-(4-bromophenyl)-3-(4-methoxyphenyl)-7-((2,2,2-trifluoroethyl)amino)-3,4-dihydropyrimido[4,5-d]pyrimidin-2(1H)-one]
> 7.00	6.00 to 7.00	< 6.00	6.00 to 7.00			COc1ccc(N2C(=O)N(c3ccc4nccn4c3)Cc3cnc(NCC(F)(F)F)nc32)cc1 [Example 237]
> 7.00	6.00 to 7.00	< 6.00	6.00 to 7.00			COc1ccc(N2C(=O)N(c3ccc4ncccc4c3)Cc3cnc(NCC(F)(F)F)nc32)cc1 [Example 241]
> 7.00	6.00 to 7.00	< 6.00	6.00 to 7.00			COc1ccc(N2Cc3cnc(NCC(F)(F)F)nc3N(c3ccc(C4CC4)cc3)C2=O)cc1 [Example 242, 1-(4-cyclopropylphenyl)-3-(4-methoxyphenyl)-7-((2,2,2-trifluoroethyl)amino)-3,4-dihydropyrimido[4,5-d]pyrimidin-2(1H)-one]
> 7.00	6.00 to 7.00	< 6.00	6.00 to 7.00			COc1ccc(N2C(=O)N(c3ccc4nn(C)cc4c3)Cc3c(OC)nc(NCC(F)(F)F)nc32)cc1 [Example 246, 5-methoxy-1-(4-methoxyphenyl)-3-(2-methyl-2H-indazol-5-yl)-7-((2,2,2-trifluoroethyl)amino)-3,4-dihydropyrimido[4,5-d]pyrimidin-2(1H)-one]
> 7.00	> 7.00	6.00 to 7.00	> 7.00			COc1ccc(N2C(=O)N(c3ccc4nn(C)cc4c3)Cc3c(C)nc(NCC(F)(F)F)nc32)cc1 [Example 247, 1-(4-methoxyphenyl)-5-methyl-3-(2-methyl-2H-indazol-5-yl)-7-((2,2,2-trifluoroethyl)amino)-3,4-dihydropyrimido[4,5-d]pyrimidin-2(1H)-one]
6.00 to 7.00	6.00 to 7.00	< 6.00	< 6.00			COc1ccc(N2Cc3cnc(NCC(F)(F)F)nc3N(c3ccc(C(F)(F)F)cc3)C2=O)cc1 [Example 250, 3-(4-methoxyphenyl)-7-((2,2,2-trifluoroethyl)amino)-1-(4-(trifluoromethyl)phenyl)-3,4-dihydropyrimido[4,5-d]pyrimidin-2(1H)-one]
